Data set [1] has as its target T1, Ang-(1–7) peptidase purified from sheep brain medulla (Ovis aries, UniProt A0ACI6RWG7). In words: Inhibitor profile of 125I-Ang-. It is filed as biochemical. To be noted: cocktail; for effect of inhibitor on peptidase activity (in words): enriched medullary peptidase, 60 min, 37°C.
Data set [2] addresses T1, Ang-(1–7) peptidase purified from sheep brain medulla.
For the next data set, the system named is ACE. As to conditions: read-out: reported IC50; ref Doulut et al. 1993; cited from earlier work.
For data set [3], the target named is Ang-(1–7) peptidase activity in CSF (Ovis aries, UniProt A0ACI6RWG7). In words: Inhibitor profile of 125I-Ang-. Format: biochemical, sheep. As to conditions: CSF 25 µl, cocktail, 60 min, 37°C.

These results are taken from publication PMC4137327 (Journal of neurochemistry, 2014).

The term IC50 denotes the concentration at which inhibition is half-maximal.

Entries after “also recorded” stand apart in the source; their conditions may differ. Where two headings read alike, the source gives them in different places. Ends that are not written are not given here. Bounds are passed on as bounds.

`O[C@@H](CS)[C@@H](O)CS` (racemic) [DTT, dithiothreitol]: the “effect of inhibitor on peptidase activity (in words)” value (from here on “effect of inhibitor”) in data set [1] (inhibitor 5 mM, N=3) is given as “partial inhibition”.
Consider `CC[C@H](C)[C@H](NC(=O)[C@H](Cc1ccc(O)cc1)NC(=O)[C@@H](NC(=O)[C@H](CCCNC(=N)N)NC(=O)[C@@H](N)CC(=O)O)C(C)C)C(=O)N[C@@H](Cc1cnc[nH]1)C(=O)N1CCC[C@H]1C(=O)N[C@@H](Cc1ccccc1)C(=O)O` [Ang II], for which, in data set [2] (HPLC analysis, unlabeled peptide 0.4 mM, 24 hours, 37°C), the “hydrolysis of unlabeled peptide by the peptidase” value is on record as under 5%.
In the case of `CC(C)C[C@H](NC(=O)[C@@H](CC(=O)NO)Cc1ccccc1)C(=O)O` [JMV-390, N-[3-[(hydroxyamino)carbonyl]-1-oxo-2(R)-benzylpropyl]-L-leucine], the “effect on the peak of Ang-(1–4) from unlabeled Ang-(1–7) (in words)” value in data set [2] (10 µM JMV-390, Ang-(1–7) 400 µM, 24 hours, 37°C (Figure 6B)) is recorded as “abolished”. Besides, the “effect on the Ang-(1–4) peak (in words)” value in data set [1] (1 nM JMV-390, purified enzyme) was “reduced the Ang-(1–4) peak”. In addition, the “effect on peptidase activity (in words)” value in data set [1] (100 nM JMV-390, purified enzyme) is “essentially abolished activity”. Also, the IC50 with ACE was 70 µM.
For `O=S(=O)(F)Cc1ccccc1` [PMSF, phenylmethylsulfonyl fluoride], the “effect of inhibitor” value in data set [1] (inhibitor 100 µM, N=3) is listed as “insensitive; also recorded: did not inhibit activity”.
On to `c1cnc2c(c1)ccc1cccnc12` [o-phenanthroline], for which, in data set [1] (inhibitor 1 mM, N=3), the “effect of inhibitor” value is recorded as “abolished peptidase activity; also recorded: sensitive”.
On to DRVYIHPFHL [Ang I], for which the “hydrolysis of unlabeled peptide by the peptidase” value in data set [2] (sheep, purified brain medulla peptidase, 24 h, 400 µM) was under 5%.
As to aprotinin, the “Inhibitor Sensitivity (% of control)” value in data set [3] (inhibitor 80 µM) is 100 % of control. Besides, the “effect of inhibitor” value in data set [1] (inhibitor 80 µM) is “insensitive”.

B1: soybean trypsin inhibitor (protein, UniProt P01070 25-205, looked up)
Trypsin inhibitor A: DFVLDNEGNPLENGGTYYILSDITAFGGIRAAPTGNERCPLTVVQSRNELDKGIGTIISSPYRIRFIAEGHPLSLKFDSFAVIMLCVGIPTEWSVVEDLPEGPAVKIGENKDAMDGWFRLERVSDDEFNNYKLVFCPQQAEDDKCGDIGISIDHDDGTRRLVVSKNKPLVVQFQKLDKESL
On to B1, for which, in data set [3] (inhibitor 100 µM, mean ± SEM), the “Inhibitor Sensitivity (% of control)” value is given as 101 ± 2 % of control. Also, in data set [1] (inhibitor 100 µM, N=3), the “effect of inhibitor” value is “insensitive”.
